Source: publication PMC12523642, “Unveiling the Bioactive Potential of Allium colchicifolium Boiss Bulb Flavonoids: Anti-cancer Activities, and Computational Exploration of Anti-angiogenic Mechanisms” (Iranian Journal of Pharmaceutical Research : IJPR, 2025)
In brackets after ≈: the same amount, converted by molar mass. Where two headings read alike, the source gives them in different places.

Columns and labels:
[1] = test system: VEGF receptor-2 and angiogenesis cellular signaling pathways; details: 25 µM; cited from earlier work
mice VEGF serum levels = test system: mice VEGF serum levels; set-up: method as in PMID 23867787; details: 20 mg/kg; by reducing mice VEGF serum levels; cited from earlier work
[2] = test system: PC3 (human prostate adenocarcinoma); experiment: MTT cytotoxicity assay on PC3; type: cell-based; details: 24 h, mean ± SD, read-out: Cytotoxic activity IC50, PC3
Experimental: (§1) Cancer cell lines, including PC3 NCBI-C427 (human prostate adenocarcinoma), HeLa NCBI-C115 (human cervix carcinoma), MCF7 NCBI-C135 (human breast adenocarcinoma), and a normal cell line, human umbilical vein endothelial cell (HUVEC) NCBI-C554, were purchased from the Pasteur Institute of Tehran, Iran. Cells were cultured and maintained in Dulbecco’s modified Eagle’s medium (DMEM) supplemented with 10% fetal bovine serum (FBS) and 2% (v/v) streptomycin-penicillin in a humidified incubator with a 5% CO2 atmosphere at 37°C. Passages 2 to 3 of the cells were utilized for the cytotoxicity assay ([18]).
(§2) The MTT assay was used to determine the cytotoxic activities of the MeOH extract, isolated compounds (1 - 3), and doxorubicin (as a positive control) on human cancer cell lines. For the MTT assay, concentrations (1, 5, 10, 25, 50, 100 µg) of the samples were prepared in DMEM as diluent and incubated with cells (10^5 cells/mL) for 24 hours in 96-well plates. Then, the MTT powder was added to the wells and incubated for 4 hours at 37°C. Absorbance was measured at 570 nm using a microplate reader. The experiment was performed in triplicate, and cell viability percentages were calculated by the following equation: […]. The negative control was untreated cells. The cytotoxicity IC50 value for the extracts was defined as the concentration that reduces 50% cell viability ([19]).

[3] = MTT cytotoxicity assay on HUVEC (normal cell line); type: cell-based; details: human, HUVEC (umbilical vein endothelial cells), mean ± SD, read-out: Cytotoxic activity IC50, HUVEC
Experimental: as §1, §2

[4] = test system: MCF7 (human breast adenocarcinoma); experiment: MTT cytotoxicity assay on MCF-7; type: cell-based; details: MCF7, 24 h, mean ± SD, read-out: Cytotoxic activity IC50, MCF-7
Experimental: as §1, §2

[5] = test system: HeLa (human cervix carcinoma); experiment: MTT cytotoxicity assay on HeLa; type: cell-based; details: 24 hours, mean ± SD, read-out: Cytotoxic activity IC50, HeLa
Experimental: as §1, §2

[6] = test system: chicken chorioallantoic membrane (CAM); experiment: Chick chorioallantoic membrane (CAM) anti-angiogenesis assay; type: in vivo; details: Gallus gallus, read-out: Anti-angiogenesis IC50 (50% inhibition of angiogenesis)
Experimental: The anti-angiogenesis activities of the MeOH extract and isolated compounds ([1]-[3]) were evaluated using the chicken chorioallantoic membrane (CAM) model. Briefly, pathogen-free fertilized chicken eggs were purchased from Baharan Parent Stock Company, Kermanshah, Iran, and incubated at 37°C with 75% humidity for 7 days. Then, square windows (1 cm^2) were opened in the outer shell of the eggs, and different concentrations of samples were loaded. After 48 hours, the zones around the discs were photographed with a digital camera and macroscopically assayed for neovascular zones of CAM in each treatment group. The effects on local vessel density within a 10 cm^2 area surrounding the windows were measured in each treatment group using AngioSoft software (V, 2019) ([12], [13]). The study was done in triplicate for each experimental group (8 eggs). The anti-angiogenesis IC50 value for the extracts was reported as the concentration that reduces 50% angiogenesis compared to the blank disk.
The results of the anti-angiogenesis activities of isolated flavonoids (1 - 3) and the MeOH extract of A. colchicifolium bulbs on the CAM model of angiogenesis are shown in Figure 2A and B. The IC50 of each compound was considered as the concentration that caused 50% inhibition of angiogenesis in a 100 mm^2 area surrounding each sample disc compared to the negative control disc (distilled water).

CAM model = details: 10 nM; by blocking matrix metalloproteinase-2 gene expression; cited from earlier work
[7] = CAM model, 48 hours, compared to negative control disc

SMILES	Anti-angiogenesis activities [1]	Inhibition of angiogenesis (mice VEGF serum levels)	IC50 [2] [µg/mL]	IC50 at 24 h [3] [µg/mL]	IC50 [4] [µg/mL]	IC50 [5] [µg/mL]	IC50 [6, 7] [µg/mL]	Anti-angiogenesis on the CAM model (CAM model)	IC50 ([6]; 48 h) [µg/mL]
COc1ccc(-c2oc3c(C)c(OC)cc(OC)c3c(=O)c2OC)cc1OC [8-methylquercetin-3,5,7,3',4'-pentamethyl ether, reference compound]	demonstrated anti-angiogenesis activities								
C[C@@H]1O[C@@H](OC[C@H]2O[C@@H](Oc3c(-c4ccc(O)c(O)c4)oc4cc(O)cc(O)c4c3=O)[C@H](O)[C@@H](O)[C@@H]2O)[C@H](O)[C@H](O)[C@H]1O [Compound 1, quercetin 3-O-rutinoside]		inhibited angiogenesis	2.96 ± 0.16 (≈ 4.85 µM)	9.35 ± 0.8 (≈ 15.3 µM)	3.16 ± 0.3 (≈ 5.18 µM)	6.95 ± 0.32 (≈ 11.4 µM)	7.12 ± 0.1 (≈ 11.7 µM)		
COc1cc(-c2oc3cc(O)cc(O)c3c(=O)c2O[C@@H]2O[C@H](CO)[C@@H](O)[C@H](O)[C@H]2O)ccc1O [Compound 2, isorhamnetin 3-O-glucoside]			1.72 ± 0.02 (≈ 3.6 µM)	9.96 ± 0.37 (≈ 20.8 µM)	2.58 ± 0.21 (≈ 5.39 µM)	8.43 ± 0.32 (≈ 17.6 µM)	6 ± 0.21 (≈ 12.5 µM)		
O=c1c(O)c(-c2ccc(O)c(O)c2)oc2cc(O)cc(O)c12 [Compound 3, quercetin]	demonstrated anti-angiogenesis activities		≤ 3	7.23 ± 0.29 (≈ 23.9 µM)	≤ 3	6.17 ± 0.13 (≈ 20.4 µM)		exhibited anti-angiogenesis	5.3 ± 0.3 (≈ 17.5 µM)
COc1cccc2c1C(=O)c1c(O)c3c(c(O)c1C2=O)C[C@@](O)(C(=O)CO)C[C@@H]3O[C@H]1C[C@H](N)[C@H](O)[C@H](C)O1 [Doxorubicin, doxorubicin, reference compound]			0.051 ± 0.004 (≈ 0.0938 µM)	0.045 ± 0.006 (≈ 0.0828 µM)	0.034 ± 0.01 (≈ 0.0626 µM)	0.066 ± 0.007 (≈ 0.121 µM)			
